Laboratory results from patent US10604523B2, “1-aryl-4-methyl-[1,2,4]triazolo[4,3-a]quinoxaline derivatives” (Janssen Pharmaceutica NV, priority 2011, dated 2020).
Read-outs that look alike come from different tables or passages of the source.

Legend:
[1] = target: T1, Human recombinant PDE2A (hPDE2A) (Homo sapiens, UniProt O00408); assay: In vitro assay PDE2A (SPA, 3H-cGMP); assay type: biochemical; details: read-out: pIC50 PDE2 (converted)
T1 construct: made in house; host or cells: Sf9 insect cells (baculovirus)
T1 sequence (O00408 whole entry): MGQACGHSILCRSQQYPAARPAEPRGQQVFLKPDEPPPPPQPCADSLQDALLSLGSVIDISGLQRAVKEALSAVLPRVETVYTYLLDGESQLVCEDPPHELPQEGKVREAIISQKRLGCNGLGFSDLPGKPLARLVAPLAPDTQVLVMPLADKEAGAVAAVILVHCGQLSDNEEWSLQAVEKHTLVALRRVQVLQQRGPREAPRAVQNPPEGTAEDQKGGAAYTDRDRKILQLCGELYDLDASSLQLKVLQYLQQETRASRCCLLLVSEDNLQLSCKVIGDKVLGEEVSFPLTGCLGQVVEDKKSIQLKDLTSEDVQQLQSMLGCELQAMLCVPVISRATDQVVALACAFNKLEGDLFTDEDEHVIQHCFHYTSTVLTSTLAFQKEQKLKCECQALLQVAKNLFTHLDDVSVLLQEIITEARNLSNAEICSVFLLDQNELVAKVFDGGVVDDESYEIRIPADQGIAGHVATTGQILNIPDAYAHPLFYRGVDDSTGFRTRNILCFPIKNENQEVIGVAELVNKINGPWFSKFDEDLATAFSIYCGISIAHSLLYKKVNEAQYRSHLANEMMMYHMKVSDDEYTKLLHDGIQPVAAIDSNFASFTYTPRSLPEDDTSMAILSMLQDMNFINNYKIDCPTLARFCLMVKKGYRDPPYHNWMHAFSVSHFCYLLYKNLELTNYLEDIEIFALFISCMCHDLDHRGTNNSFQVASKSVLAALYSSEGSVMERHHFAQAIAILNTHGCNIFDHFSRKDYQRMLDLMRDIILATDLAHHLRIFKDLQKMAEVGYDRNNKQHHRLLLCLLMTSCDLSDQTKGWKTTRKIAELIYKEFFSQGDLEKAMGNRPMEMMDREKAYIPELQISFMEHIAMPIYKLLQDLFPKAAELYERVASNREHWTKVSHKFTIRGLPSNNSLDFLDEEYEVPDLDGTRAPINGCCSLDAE

[2] = target: T2, Rat recombinant PDE10A (rPDE10A2) (Rattus norvegicus, UniProt Q9QYJ6); assay: In vitro assay PDE10A (SPA, 3H-cAMP); assay type: biochemical; details: for IC50: read-out: PIC50 PDE10 (converted)
T2 construct: made in house; host or cells: Sf9 insect cells (baculovirus)
T2 sequence (Q9QYJ6 1-794): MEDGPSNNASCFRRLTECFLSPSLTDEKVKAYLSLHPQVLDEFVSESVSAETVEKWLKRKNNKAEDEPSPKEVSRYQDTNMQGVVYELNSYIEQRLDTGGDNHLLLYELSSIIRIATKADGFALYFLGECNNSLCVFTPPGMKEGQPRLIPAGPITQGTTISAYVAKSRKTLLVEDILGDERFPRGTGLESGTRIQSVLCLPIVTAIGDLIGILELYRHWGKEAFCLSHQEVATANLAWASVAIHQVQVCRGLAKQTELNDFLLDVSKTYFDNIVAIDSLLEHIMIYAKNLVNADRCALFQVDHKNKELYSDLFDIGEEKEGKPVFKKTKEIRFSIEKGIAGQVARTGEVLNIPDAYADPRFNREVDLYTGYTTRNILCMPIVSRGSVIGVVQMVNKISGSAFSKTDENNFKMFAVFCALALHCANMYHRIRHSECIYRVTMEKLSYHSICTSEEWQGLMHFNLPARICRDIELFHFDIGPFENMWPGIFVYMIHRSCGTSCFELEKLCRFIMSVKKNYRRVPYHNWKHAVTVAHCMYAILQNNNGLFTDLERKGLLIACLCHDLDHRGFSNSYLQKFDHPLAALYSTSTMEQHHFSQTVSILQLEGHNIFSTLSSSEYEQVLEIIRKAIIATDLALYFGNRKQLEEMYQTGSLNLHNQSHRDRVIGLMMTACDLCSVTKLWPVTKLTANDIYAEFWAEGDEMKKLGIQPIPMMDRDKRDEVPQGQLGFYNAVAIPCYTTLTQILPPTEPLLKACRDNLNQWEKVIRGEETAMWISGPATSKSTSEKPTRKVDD

[3] = tested on: Apomorphine-induced agitation; assay: Reversal of Apomorphine-induced Agitation in Rats (APO); assay type: in vivo, rat; details: for SC Dose at max effect / SC Max effect (cumulative agitation score over 60 min) / SC LAD (lowest active dose): subcutaneous route; for SC Max effect (cumulative agitation score over 60 min) / PO Max effect (cumulative agitation score over 60 min): apomorphine 1.0 mg/kg i.v.; for SC LAD (lowest active dose) / PO LAD (lowest active dose): lowest dose at which ≥67% tested animals respond
Protocol: Apomorphine (1.0 mg/kg, i.v.)-induced agitation was scored every 5 min over the first hour after injection of apomorphine. The score system was: (3) pronounced, (2) moderate, (1) slight, and (0) absent. […] For the present purpose, the cumulative agitation score over the whole 60-min observation period was used as a measure to describe the maximum effect (Max effect).

[4] = -log IC50 expressed in mol/L, rPDE10A2, 60 nM cAMP

With CCCCOc1cncc(-c2nnc3c(C)nc4ccc(CN5CCCC5)cc4n23)c1 [Compound B-206] the IC50 [1] was 135 nM and the IC50 [2] was > 10000 nM.
For COc1cncc(-c2nnc3c(C)nc4ccc(OC(F)(F)F)cc4n23)c1 [Compound B-165], the IC50 [1] was 81.3 nM and the IC50 [2] was 501 nM.
Compound CCCCOc1cncc(-c2nnc3c(C)nc4ccc(CN5CCC(F)CC5)cc4n23)c1 [Compound B-201] has an IC50 [1] of 95.5 nM and an IC50 [2] of 5130 nM.
With CCCCOc1ccc(Cl)c(-c2nnc3c(C)nc4ccc(CN5CCC(O)CC5)cc4n23)c1 [Compound B-105] the IC50 [1] was 19.1 nM and the IC50 [2] was 1450 nM.
In the case of Cc1nc2ccc(NC3CCN(C)CC3)cc2n2c(-c3ccccc3Cl)nnc12 [Compound B-147], the IC50 [1] is reported as 44.7 nM and the IC50 [2] is reported as 87.1 nM.
In the case of CCOCc1cncc(-c2nnc3c(C)nc4ccc(CN(C)C)cc4n23)c1 [Compound B-212], the IC50 [1] is reported as 355 nM and the IC50 [2] is reported as 6170 nM.
Cc1nc2ccc(Br)cc2n2c(-c3cccc(Cl)c3Cl)nnc12 [Compound B-166] gave an IC50 [1] of 95.5 nM and an IC50 [2] of 282 nM.
Work on Cc1nc2ccc(C(N3CCOCC3)C(F)(F)F)cc2n2c(-c3ccccc3Cl)nnc12 (centres unmarked) [Compound B-22, 1-(2-Chlorophenyl)-4-methyl-8-(2,2,2-trifluoro-1-morpholin-4-ylethyl) [1,2,4]triazolo[4,3-a]quinoxaline] yielded an IC50 [1] of 7.76 nM and an IC50 [2] of 89.1 nM.
Compound COCCc1cncc(-c2nnc3c(C)nc4ccc(CN5CCOCC5)cc4n23)c1 [Compound B-198] has an IC50 [1] of 89.1 nM and an IC50 [2] of 5890 nM.
Compound COc1cncc(-c2nnc3c(C)nc4ccc(C(F)(F)F)cc4n23)c1 [Compound B-163] has an IC50 [1] of 69.2 nM and an IC50 [2] of 1150 nM.
With CCNC(=O)c1ccc2c(c1)nc(C)c1nnc(-c3cccnc3C)n12 [Compound B-169] the IC50 [1] was 102 nM and the IC50 [2] was 2820 nM.
Cc1nc2ccc(CNc3cccnc3)cc2n2c(-c3cc(OC(C)C)ccc3Cl)nnc12 [Compound B-133] showed an IC50 [1] of 30.2 nM and an IC50 [2] of 1230 nM.
Cc1nc2ccc(C(=O)OCCc3ccccc3)cc2n2c(-c3ccccc3)nnc12 [Compound B-122] was tested, and the IC50 [1] was 27.5 nM and the IC50 [2] was 331 nM.
In the case of COCCNC(=O)c1ccc2nc(C)c3nnc(-c4ccccc4Cl)n3c2c1 [Compound B-37], the IC50 [1] is reported as 0.631 nM and the IC50 [2] is reported as 20.4 nM.
CCCOc1cncc(-c2nnc3c(C)nc4ccc(CNC5CCC5)cc4n23)c1 [Compound B-209] was tested, and the IC50 [1] was 302 nM and the IC50 [2] was > 10000 nM.
Cc1nc2ccc(CN3CCOCC3)cc2n2c(-c3cncc(OCCF)c3)nnc12 [Compound B-195] gave an IC50 [1] of 42.7 nM and an IC50 [2] of 3550 nM.
CCCOc1ccc(Cl)c(-c2nnc3c(C)nc4ccc(CN5CCC(F)CC5)cc4n23)c1 [Compound B-135] was tested, and the IC50 [1] was 30.2 nM and the IC50 [2] was 589 nM.
With Cc1nc2ccc(CN3CCC(F)CC3)cc2n2c(-c3cc(OC(C)C)ccc3Cl)nnc12 [Compound B-134] the IC50 [1] was 30.2 nM and the IC50 [2] was 1100 nM.
With CCCCOc1ccc(Cl)c(-c2nnc3c(C)nc4ccc(CN5CCN(C)CC5)cc4n23)c1 [Compound B-160] the IC50 [1] was 60.3 nM and the IC50 [2] was 2450 nM.
CCCCOc1cncc(-c2nnc3c(C)nc4ccc(CNC5CCC5)cc4n23)c1 [Compound B-155] was tested, and the IC50 [1] was 60.3 nM and the IC50 [2] was 9120 nM.
Compound CCCCOc1cncc(-c2nnc3c(C)nc4ccc(Br)cc4n23)c1 [Compound B-7, 8-Bromo-1-(5-butoxypyridin-3-yl)-4-methyl[1,2,4]triazolo[4,3-a]quinoxaline] has an IC50 [1] of 18.6 nM and an IC50 [2] of 3390 nM.
In the case of Cc1nc2ccc(Br)cc2n2c(-c3cc(OC(C)C)ccc3Cl)nnc12 [Compound B-100], the IC50 [1] is reported as 14.8 nM and the IC50 [2] is reported as 1230 nM.
Cc1nc2ccc(N3CCN(C)CC3)cc2n2c(-c3cc(OC(C)C)ccc3Cl)nnc12 [Compound B-115] was tested, and the IC50 [1] was 24.5 nM and the IC50 [2] was 1120 nM.
CCCOc1ccc(Cl)c(-c2nnc3c(C)nc4ccc(CNc5cccnc5)cc4n23)c1 [Compound B-138] showed an IC50 [1] of 33.9 nM and an IC50 [2] of 708 nM.
Work on CCCCOc1cncc(-c2nnc3c(C)nc4ccc(CNCC5CC5)cc4n23)c1 [Compound B-156] yielded an IC50 [1] of 61.7 nM and an IC50 [2] of 7940 nM.
Compound COc1ccc2nc(C)c3nnc(-c4ccccc4OC(F)(F)F)n3c2c1 [Compound B-164] has an IC50 [1] of 69.2 nM and an IC50 [2] of 2510 nM.
In the case of CCOCc1cncc(-c2nnc3c(C)nc4ccc(CNC5CCC5)cc4n23)c1 [Compound B-213], the IC50 [1] is reported as 372 nM and the IC50 [2] is reported as > 10000 nM.
Compound CCCOc1ccc(Cl)c(-c2nnc3c(C)nc4ccc(OC[C@@H]5CCCN5)cc4n23)c1 [Compound B-161] has an IC50 [1] of 60.3 nM and an IC50 [2] of 8710 nM.
In the case of Cc1nc2ccc(CN3CCCC3)cc2n2c(-c3cncc(OCC4CC4)c3)nnc12 [Compound B-208], the IC50 [1] is reported as 275 nM and the IC50 [2] is reported as > 10000 nM.
Work on Cc1nc2ccc(CO)cc2n2c(-c3ccccc3)nnc12 [Compound B-29, (4-Methyl-1-phenyl[1,2,4]triazolo[4,3-a]quinoxalin-8-yl)methanol] yielded an IC50 [1] of 44.7 nM and an IC50 [2] of 380 nM.
For CCCCOc1ccc(Cl)c(-c2nnc3c(C)nc4ccc(CN5CCCC5)cc4n23)c1 [Compound B-79], the IC50 [1] was 8.13 nM and the IC50 [2] was 1910 nM.
Compound Cc1nc2ccc(Br)cc2n2c(-c3cncc(OCC4CC4)c3)nnc12 [Compound B-125] has an IC50 [1] of 27.5 nM and an IC50 [2] of 3090 nM.
In the case of CCCCOc1ccc(Cl)c(-c2nnc3c(C)nc4ccc(CNCC5CC5)cc4n23)c1 [Compound B-152], the IC50 [1] is reported as 50.1 nM and the IC50 [2] is reported as 3890 nM.
Compound Cc1nc2ccccc2n2c(-c3cncc(Cl)c3)nnc12 [Compound B-183] has an IC50 [1] of 316 nM.
For Cc1nc2ccc(CN3CCCC(CO)C3)cc2n2c(-c3ccccc3Cl)nnc12 (centres unmarked) [Compound B-110], the SC Dose at max effect [3] was 10 mg/kg, the “SC Max effect (cumulative agitation score over 60 min)” value [3] was 21 and the SC LAD (lowest active dose) [3] was > 10 mg/kg. For the same compound, the IC50 [2] was 44.7 nM.
With Cc1nc2ccc(C(=O)NCc3ccccn3)cc2n2c(-c3ccccc3Cl)nnc12 [Compound B-35] the PO Dose at Max Effect [3] was 10 mg/kg, the “PO Max effect (cumulative agitation score over 60 min)” value [3] was 22 and the PO LAD (lowest active dose) [3] was > 10 mg/kg. For the same compound, the IC50 [2, 4] was 8.32 nM.
In the case of COc1cncc(-c2nnc3c(C)nc4ccc(CN5CCOCC5)cc4n23)c1 [Compound B-91], the SC Dose at max effect [3] is reported as 10 mg/kg, the “SC Max effect (cumulative agitation score over 60 min)” value [3] is reported as 21 and the SC LAD (lowest active dose) [3] is reported as > 10 mg/kg. For the same compound, the “PIC50 PDE10” value [2, 4] was 6.57.
In the case of Cc1ncccc1-c1nnc2c(C)nc3ccccc3n12 [Compound B-174], the IC50 [1] is reported as 138 nM.
With Cc1nc2ccc(CN(C)C)cc2n2c(-c3ccccc3Cl)nnc12 [Compound B-107] the SC Dose at max effect [3] was 10 mg/kg, the “SC Max effect (cumulative agitation score over 60 min)” value [3] was 20.5 and the SC LAD (lowest active dose) [3] was > 10 mg/kg. The IC50 [2] was 107 nM.
For CCOc1ccc(Cl)c(-c2nnc3c(C)nc4ccc(CN5CCOCC5)cc4n23)c1 [Compound B-70], the SC Dose at max effect [3] was 10 mg/kg, the “SC Max effect (cumulative agitation score over 60 min)” value [3] was 24 and the SC LAD (lowest active dose) [3] was > 10 mg/kg. The “PIC50 PDE10” value [2, 4] was 6.58.
CCOc1ccc(Cl)c(-c2nnc3c(C)nc4ccc(CN(C)C)cc4n23)c1 [Compound B-142] was tested, and the SC Dose at max effect [3] was 10 mg/kg, the “SC Max effect (cumulative agitation score over 60 min)” value [3] was 22 and the SC LAD (lowest active dose) [3] was > 10 mg/kg. For the same compound, the IC50 [2] was 316 nM.
CCNC(=O)c1ccc2nc(C)c3nnc(-c4cccnc4C)n3c2c1 [Compound B-68] was tested, and the SC Dose at max effect [3] was 10 mg/kg, the “SC Max effect (cumulative agitation score over 60 min)” value [3] was 22 and the SC LAD (lowest active dose) [3] was > 10 mg/kg. The IC50 [2, 4] was 178 nM.
Work on Cc1cncc(-c2nnc3c(C)nc4ccccc4n23)c1 [Compound B-177] yielded an IC50 [1] of 162 nM.
For COc1ccc(Cl)c(-c2nnc3c(C)nc4ccc(CN5CCOCC5)cc4n23)c1 [Compound B-84], the PO Dose at Max Effect [3] was 10 mg/kg, the “PO Max effect (cumulative agitation score over 60 min)” value [3] was 21 and the PO LAD (lowest active dose) [3] was > 10 mg/kg. For the same compound, the IC50 [2, 4] was 105 nM.
